Test results published in ChEMBL document CHEMBL1201862, “PubChem BioAssay data set” (2004).
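Five compound concentrations were applied to cells in 96-well plates for 48 hours; endpoints were derived by simple linear interpolation of the resulting dose-response curve. The concentration for 50% growth inhibition is given as GI50.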 The source made the active and inactive calls. Rule as the data show it: active = GI50 up to about 1.1 µM and inactive = higher.

Assays:
Assay in all cases: NCI anticancer screen, dose series, 48 h
SNB-75 = system: SNB-75
OVCAR-3 = system: OVCAR-3
NCI-H23 = system: NCI-H23
HCT-116 = system: HCT-116
MDA-N = system: MDA-N
A498 = system: A498
HOP-62 = system: HOP-62
SR = system: SR
BT-549 = system: BT-549
HT-29 = system: HT-29
RXF 393 = system: RXF 393
ACHN = system: ACHN
EKVX = system: EKVX
Hs-578T = system: Hs-578T
LXFL 529 = system: LXFL 529
MCF7 = system: MCF7
U-251 = system: U-251
OVCAR-5 = system: OVCAR-5
SF-268 = system: SF-268
T47D = system: T47D

Measured: GI50

N#CC(C#N)=C(N)/C(C#N)=C/c1cc(O)c(O)c(Br)c1
inactive: SNB-75 52.7 µM | OVCAR-3 27.5 µM | NCI-H23 > 100 µM | HCT-116 37.8 µM | MDA-N 99.5 µM | A498 > 100 µM | HOP-62 > 69.7 µM | SR 37.8 µM | BT-549 > 100 µM | HT-29 37.4 µM | RXF 393 > 100 µM | ACHN 77.1 µM | EKVX 52.8 µM | Hs-578T 38.9 µM | LXFL 529 44.9 µM | MCF7 49.4 µM | U-251 53 µM | OVCAR-5 > 43.6 µM | SF-268 > 62.5 µM | T47D 32.7 µM

CCCCCCCCCCCC(=O)OC[C@@H](C[As](=O)(O)O)OC(=O)CCCCCCCCCCC
inactive: SNB-75 3.82 µM | OVCAR-3 4.19 µM | NCI-H23 5.69 µM | HCT-116 8.45 µM | MDA-N 4.29 µM | A498 11.9 µM | HOP-62 9.95 µM | SR 7.36 µM | BT-549 3.48 µM | HT-29 9.82 µM | RXF 393 2.43 µM | ACHN 3.01 µM | EKVX 13.7 µM | Hs-578T 3.93 µM | LXFL 529 5.45 µM | MCF7 2.8 µM | U-251 2.14 µM | OVCAR-5 16.3 µM | SF-268 5.15 µM | T47D 12.6 µM

COC(=O)C(CBr)CBr
inactive: SNB-75 16.3 µM | OVCAR-3 2.65 µM | NCI-H23 6.78 µM | HCT-116 2.96 µM | MDA-N 3.48 µM | A498 16.8 µM | HOP-62 22.5 µM | BT-549 2.65 µM | HT-29 4.1 µM | RXF 393 2.19 µM | ACHN 3.7 µM | EKVX 9.55 µM | Hs-578T 4.65 µM | LXFL 529 1.79 µM | MCF7 4.46 µM | U-251 5.56 µM | OVCAR-5 16.8 µM | SF-268 15.1 µM | T47D 2.5 µM
